Common to all, as to type: nucleic-acid assay
For experiment [1], the system named is Nucleic Acid. The experiment is described as follows: Stabilization of human G-quadruplex F21T assessed as change in melting temperature at 5 uM by FRET assay.
In experiment [2] the test system is Nucleic Acid. The experiment is described as follows: Stabilization of human G-quadruplex F21T assessed as change in melting temperature at 1 uM by FRET assay.
Experiment [3] concerns Nucleic Acid. Nature of the experiment: Stabilization of DNA duplex hairpin structure assessed as change in melting temperature at 1 uM by FRET assay.

Turning to `Cc1cc(N)c2cc(NC(=O)/C=C/c3ccccc3Cl)ccc2n1`, the figures for the ΔTm in the experiment with Nucleic Acid [1], with Nucleic Acid [2] and with Nucleic Acid [3] were 19.7 °C, 7.3 °C and 0.4 °C, respectively.
Regarding `COc1ccc2cc3[n+](cc2c1OC)CCc1cc2c(cc1-3)OCO2`, the ΔTm (usually the change in melting temperature against a reference sample) in the experiment on Nucleic Acid [1] came to 23.8 °C; with Nucleic Acid [2], 9.7 °C; in the experiment with Nucleic Acid [3] it was 0.3 °C.
For `CCN1C=C/C(=C\C=C\c2cc[n+](CC)c3ccccc23)c2ccccc21`, the ΔTm is 36.4 °C with Nucleic Acid [1], 11.2 °C in the experiment with Nucleic Acid [2] and 0.6 °C in the experiment on Nucleic Acid [3].
As for `Cc1cc(N)c2ccccc2[n+]1CCCCCCCCCC[n+]1c(C)cc(N)c2ccccc21`, the values for the ΔTm in the experiment with Nucleic Acid [1], in the experiment with Nucleic Acid [2] and with Nucleic Acid [3] were 40.7 °C, 19.5 °C and 1.3 °C, respectively.
On to `CCN(CC)Cc1cc2[nH]c3c4ccc(Cl)cc4ncc3c2cc1OC`, for which the ΔTm with Nucleic Acid [1] came out at 25.9 °C; in the experiment on Nucleic Acid [2], 15 °C; with Nucleic Acid [3], 0.7 °C.
For the molecule `COc1cc2c3c(n(C)c(=O)c2cc1OC)-c1cc2c(cc1C3=O)OCO2`, the ΔTm in the experiment on Nucleic Acid [1] came out at 18.8 °C; with Nucleic Acid [2] it was 8.1 °C; in the experiment with Nucleic Acid [3], 0.3 °C.
On to `CN(C)c1ccc(C=c2c3ccccc3n3c2cc(-c2ccc(Cl)cc2)[n+]3C)cc1`, for which the ΔTm stood at 22.1 °C in the experiment with Nucleic Acid [1], 1.3 °C with Nucleic Acid [2] and 0.3 °C with Nucleic Acid [3].
As for `Cc1ccc2c(ccc(/C=C/c3ccc(O)c4ncccc34)[n+]2C)c1`, the ΔTm in the experiment with Nucleic Acid [1] was 22.9 °C; in the experiment on Nucleic Acid [2], 12.4 °C; in the experiment with Nucleic Acid [3], 0 °C.
Turning to `O=C(Nc1ccc(C2=NCCN2)cc1)c1ccc(C(=O)Nc2ccc(C3=NCCN3)cc2)c(Cl)c1`, the ΔTm in the experiment on Nucleic Acid [1] is 20.4 °C; in the experiment on Nucleic Acid [2], 8.4 °C; in the experiment on Nucleic Acid [3] it was 1.4 °C.
Taken in the same sequence, the figures for `O=C(Nc1ccc(C2=NCCN2)cc1)c1ccc(C(=O)Nc2ccc(C3=NCCN3)cc2)c([N+](=O)[O-])c1` were 33.2 °C, 13.3 °C and 3.4 °C.
With `Cc1ccc(NC(=O)Nc2nc3ccccc3s2)cc1NC(=O)Nc1nc2ccccc2s1`, the values for the ΔTm in the experiment with Nucleic Acid [1], in the experiment with Nucleic Acid [2] and with Nucleic Acid [3] were 26.6 °C, 22.7 °C and 0.4 °C, respectively.
`CN(C)c1ccc(Nc2c3ccc(NC(=O)CCN4CCCC4)cc3nc3cc(NC(=O)CCN4CCCC4)ccc23)cc1`: the ΔTm in the experiment on Nucleic Acid [2] worked out at 29.5 °C; with Nucleic Acid [3] it was 8.8 °C.
Take `O=C(Nc1ccc(C2=NCCCN2)cc1)Nc1ccc(C2=NCCCN2)cc1`: the ΔTm in the experiment on Nucleic Acid [1] is 21.5 °C; in the experiment on Nucleic Acid [2] it was 20.1 °C; with Nucleic Acid [3] it was 2.9 °C.
With `Cc1cc(NCCCCCCCNc2cc(C)nc3cc(N)ccc23)c2ccc(N)cc2n1`, the thermal shift (ΔTm) with Nucleic Acid [1] is 38.7 °C; in the experiment on Nucleic Acid [2] it was 11.8 °C; in the experiment on Nucleic Acid [3] it was 0.6 °C.
`CC(=O)N(C)c1ccc(Nc2cc(C)nc3ccc4nc[nH]c4c23)cc1`: the ΔTm in the experiment on Nucleic Acid [1] worked out at 31.1 °C; in the experiment on Nucleic Acid [2], 15.8 °C; in the experiment on Nucleic Acid [3] it was 0.4 °C.
Taken in the same sequence, the figures for `Cc1cc2nc3ccc(N(C)C)cc3[s+]c2cc1N` were 35.1 °C, 20.3 °C and 1.8 °C.
Regarding `COc1ccc2c(=O)oc3c(OC)cc(CCN(C)C)c4c(=O)oc1c2c34`, the shift in melting temperature (ΔTm) amounted to 24 °C in the experiment with Nucleic Acid [1], 13.2 °C in the experiment with Nucleic Acid [2] and 1.7 °C with Nucleic Acid [3].
In the same order, the values of `COc1cc2cc3c4cc(OC)c(OC)cc4cc[n+]3c(C)c2cc1OC.O=C([O-])CS(=O)(=O)O` are 42.6 °C, 29.9 °C and 3.2 °C.
Turning to `COc1cc(Cc2nccc3cc(OC)c(OC)cc23)c(C(C)=O)cc1OC`, the values for the ΔTm in the experiment with Nucleic Acid [1], in the experiment with Nucleic Acid [2] and in the experiment on Nucleic Acid [3] were 36.7 °C, 8 °C and 0.4 °C, respectively.
In the case of `O=C(Nc1ccc(C2=NCCN2)cc1)c1ccc(Cl)c(C(=O)Nc2ccc(C3=NCCN3)cc2)c1`, the ΔTm in the experiment on Nucleic Acid [1] worked out at 37.3 °C; in the experiment on Nucleic Acid [2], 24.2 °C; with Nucleic Acid [3] it was 1.4 °C.
Consider `COc1ccc2c(NCCCCCCNc3c4ccccc4nc4cc(OC)ccc34)c3ccccc3nc2c1`, for which the ΔTm in the experiment with Nucleic Acid [1] was 39 °C; with Nucleic Acid [2], 30.5 °C; in the experiment on Nucleic Acid [3] it was 3.9 °C.
Turning to `c1ccc2c(NCCCCCCCCNc3c4ccccc4nc4ccccc34)c3ccccc3nc2c1`, the results for the ΔTm with Nucleic Acid [1], in the experiment with Nucleic Acid [2] and in the experiment on Nucleic Acid [3] were 38.5 °C, 3 °C and 0.7 °C, respectively.
Turning to `CCN(CC)CCNc1ccc2nc(C)n3c4ccc(OC)cc4c(=O)c1c23`, the ΔTm in the experiment with Nucleic Acid [1] stood at 15.2 °C; with Nucleic Acid [2] it was 4.2 °C; in the experiment with Nucleic Acid [3], 2.6 °C.
`N=C(N)c1ccc(/C=C/c2ccc(C(=N)N)cc2O)cc1`: the ΔTm in the experiment with Nucleic Acid [1] is 26.3 °C; with Nucleic Acid [2], 17.3 °C; in the experiment with Nucleic Acid [3], 3.2 °C.

The record behind these values is ChEMBL document CHEMBL2021924, “Identification of novel telomeric G-quadruplex-targeting chemical scaffolds through screening of three NCI libraries” (Bioorg Med Chem Lett, 2012).
